Here are results for nine compounds from ChEMBL document CHEMBL4118214, “Structure activity relationships of anthranilic acid-based compounds on cellular and in vivo mitogen activated protein kinase-5 signaling pathways” (Bioorg Med Chem Lett, 2018).

The subject of the first data set is MDA-MB-231. The data set can be described thus: Antitumor activity against human MDA-MB-231 cells xenografted in SCID/Beige mouse assessed as tumor volume at 25 mg/kg, qd measured on day 30 (reference value: 49.48 +/- 3.44 mm3). The format is functional.
Details: not given
For `NC(=O)c1ccc(F)c(F)c1Nc1ccc(I)cc1F`, the Activity turned out to be 29.1 mm3.

In the next data set the target is Dual specificity mitogen-activated protein kinase kinase; MEK1/2 (Homo sapiens, UniProt P36507+Q02750). The data set can be described thus: Activation of MEK1/2 in EGF-stimulated human MDA-MB-231 cells assessed as increase in pERK1/2 levels preincubated for 30 mins followed by EGF stimulation measured after 15 mins by Western blot analysis relative to control. The conditions noted are these: mda-mb-231, 0.25 h. It is filed as cell-based.
Consider `NC(=O)c1ccccc1Nc1ccccc1F`, for which the Activity worked out at 20%.

Consider `CN1CCN(C(=O)c2ccc(F)c(F)c2N(C)c2ccc(I)cc2F)CC1`, for which the Activity is 20%.

Regarding `CN1CCN(C(=O)c2ccc(F)c(F)c2Nc2ccccc2)CC1`, the Activity is 20%.

The target in the next data set is T1, Dual specificity mitogen-activated protein kinase kinase 5 (Homo sapiens, UniProt Q13163).
T1 sequence (Q13163 whole entry): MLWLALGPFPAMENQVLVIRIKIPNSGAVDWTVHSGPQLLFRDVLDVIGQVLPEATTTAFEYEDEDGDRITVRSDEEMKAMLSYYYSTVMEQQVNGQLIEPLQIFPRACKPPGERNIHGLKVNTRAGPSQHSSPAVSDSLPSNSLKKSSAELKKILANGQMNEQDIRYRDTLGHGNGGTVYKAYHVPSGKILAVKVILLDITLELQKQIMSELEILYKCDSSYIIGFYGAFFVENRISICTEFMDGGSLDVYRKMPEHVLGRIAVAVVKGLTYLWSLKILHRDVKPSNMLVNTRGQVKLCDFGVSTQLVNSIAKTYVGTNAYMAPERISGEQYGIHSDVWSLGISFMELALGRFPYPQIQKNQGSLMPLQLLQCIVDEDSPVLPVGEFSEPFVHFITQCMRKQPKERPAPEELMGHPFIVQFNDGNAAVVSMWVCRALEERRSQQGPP
Description: Activation of MEK5 in EGF-stimulated human MDA-MB-231 cells assessed as increase in pERK5 levels preincubated for 30 mins followed by EGF stimulation measured after 15 mins by Western blot analysis relative to control. It is filed as cell-based. More on the design: concentration or dose not given beside the values. The conditions noted are these: mda-mb-231, 0.25 h. (In general: A western blot detects proteins with antibodies after separation by electrophoresis.)
Regarding `CCN(CC)C(=O)c1ccc(F)c(F)c1Nc1ccc(I)cc1F`, the Activity is on record as 20%.

On to `O=C(O)c1ccc(F)c(F)c1Nc1ccccc1F`, for which the Activity came to 20%.

`O=C(O)c1ccc(F)c(F)c1Nc1ccccc1`: the Activity was found to be 20%.

Consider `CN(c1ccc(I)cc1F)c1c(C(N)=O)ccc(F)c1F`, for which the Activity was determined as 20%.

For the compound `O=C(c1ccc(F)c(F)c1Nc1ccc(I)cc1F)N1CCNCC1`, the Activity worked out at 20%.
